In US20090252788A1, “Balsalazide formulations and manufacture and use thereof” (Salix Pharmaceuticals, Inc., priority 2005, published 2009):

Experiment: Particle size distribution and specific surface area (LS 200, Small Volume Module, Fraunhofer optical model)
Assay type: physicochemical
Conditions: for Particle size, % < 10: 10% of volume below this size; for Particle size, % < 25: 25% of volume below this size; for Particle size, % < 50: 50% of volume below this size; for Particle size, % < 75: 75% of volume below this size; for Particle size, % < 100: 100% of volume below this size; for Mean particle size (volume statistics, arithmetic) / Median particle size (volume statistics, arithmetic) / Specific Surf. Area: calculations from 0.375 μm to 2000 μm
From the text: FIG. 2 depicts and the data below tabulate for Sample 1 the arithmetic statistics describing surface area, particle size, and cumulative volume characteristics for one lot of drug substance (feed material). The particle size distribution for this lot is depicted in FIG. 2.
Table 11 A-D tabulates the arithmetic statistics describing surface area, particle size, and cumulative volume characteristics for three lots of drug substance (feed material). The particle size distributions for these lots are depicted in FIG. 7. […] Of these three lots of drug substance, 100% of the particles are less than 83.89 μm, 373.1 μm, and 69.61 μm, respectively.
Table 12 tabulates the arithmetic statistics describing surface area, particle size, and cumulative volume characteristics for three lots of drug product (encapsulated granulation samples) that were manufactured with the three lots of drug substance (feed material) as depicted in FIG. 7. […] Of these three lots of drug product, 100% of the granules are less than 1660 μm, 2000 μm, and 1512 μm, respectively. The particle size distributions for these three lots are depicted in FIG. 8.

[1] = Particle Diameter (Lower) 0.375 μm
[2] = Particle Diameter (Lower) 0.656 μm
[3] = Particle Diameter (Lower) 1.149 μm
[4] = Particle Diameter (Lower) 2.011 μm
[5] = Particle Diameter (Lower) 3.519 μm
[6] = Particle Diameter (Lower) 6.158 μm
[7] = Particle Diameter (Lower) 10.78 μm
[8] = Particle Diameter (Lower) 18.86 μm
[9] = Particle Diameter (Lower) 33.01 μm
[10] = Particle Diameter (Lower) 57.77 μm
[11] = Particle Diameter (Lower) 101.1 μm
[12] = Particle Diameter (Lower) 176.9 μm
[13] = Particle Diameter (Lower) 309.6 μm
[14] = Particle Diameter (Lower) 541.9 μm
[15] = Particle Diameter (Lower) 948.3 μm
[16] = Particle Diameter (Lower) 1660 μm

Row | Compound | Cum. < Volume % [1] | Diff. Volume % [1] | Cum. < Volume % [2] | Diff. Volume % [2] | Cum. < Volume % [3] | Diff. Volume % [3] | Cum. < Volume % [4] | Diff. Volume % [4] | Cum. < Volume % [5] | Diff. Volume % [5] | Cum. < Volume % [6] | Diff. Volume % [6] | Cum. < Volume % [7] | Diff. Volume % [7] | Cum. < Volume % [8] | Diff. Volume % [8] | Cum. < Volume % [9] | Diff. Volume % [9] | Cum. < Volume % [10] | Diff. Volume % [10] | further results
1 | O=C(O)CCNC(=O)c1ccc(/N=N/c2ccc(O)c(C(=O)O)c2)cc1 [Feed Powder Sample B (#41.$02)] | 0% | 0.64% | 0.64% | 1.50% | 2.15% | 1.94% | 4.08% | 3.16% | 7.24% | 6.98% | 14.2% | 13.9% | 28.1% | 21.3% | 49.5% | 23.1% | 72.5% | 17.0% | 89.5% | 7.10% | Cum. < Volume % [11]: 96.6%; Diff. Volume % [11]: 2.65%; Cum. < Volume % [12]: 99.3%; Diff. Volume % [12]: 0.73%
2 | O=C([O-])CCNC(=O)c1ccc(/N=N/c2ccc(O)c(C(=O)[O-])c2)cc1.[Na+].[Na+] [Sample 1] | 0% | 2.66% | 2.66% | 6.09% | 8.74% | 8.50% | 17.2% | 14.4% | 31.6% | 22.8% | 54.5% | 25.3% | 79.8% | 15.8% | 95.6% | 4.34% | 99.97% | 0.030% | 100% | 0% | Particle size, % < 10: 1.266 μm; Particle size, % < 25: 2.827 μm; Particle size, % < 50: 5.584 μm; Particle size, % < 75: 9.624 μm; Particle size, % < 100: 43.67 μm; Cum. < Volume % [11]: 100%; Diff. Volume % [11]: 0%; Cum. < Volume % [12]: 100%; Diff. Volume % [12]: 0%; Cum. < Volume % [13]: 100%; Diff. Volume % [13]: 0%; Cum. < Volume % [14]: 100%; Diff. Volume % [14]: 0%; Cum. < Volume % [15]: 100%; Diff. Volume % [15]: 0%; Cum. < Volume % [16]: 100%; Diff. Volume % [16]: 0%; Mean particle size (volume statistics, arithmetic): 6.967 μm; Median particle size (volume statistics, arithmetic): 5.584 μm; Specific Surf. Area: 19389 cm^2/mL
3 | O=C([O-])CCNC(=O)c1ccc(/N=N/c2ccc(O)c(C(=O)[O-])c2)cc1.[Na+].[Na+] [Sample 2] | 0% | 2.91% | 2.91% | 6.59% | 9.50% | 9.37% | 18.9% | 16.1% | 35.0% | 24.3% | 59.3% | 24.1% | 83.4% | 12.6% | 96.0% | 3.78% | 99.8% | 0.23% | 100% | 0% | Particle size, % < 10: 1.192 μm; Particle size, % < 25: 2.586 μm; Particle size, % < 50: 5.044 μm; Particle size, % < 75: 8.715 μm; Particle size, % < 100: 47.94 μm; Cum. < Volume % [11]: 100%; Diff. Volume % [11]: 0%; Cum. < Volume % [12]: 100%; Diff. Volume % [12]: 0%; Cum. < Volume % [13]: 100%; Diff. Volume % [13]: 0%; Cum. < Volume % [14]: 100%; Diff. Volume % [14]: 0%; Cum. < Volume % [15]: 100%; Diff. Volume % [15]: 0%; Cum. < Volume % [16]: 100%; Diff. Volume % [16]: 0%; Mean particle size (volume statistics, arithmetic): 6.503 μm; Median particle size (volume statistics, arithmetic): 5.044 μm; Specific Surf. Area: 20709 cm^2/mL
4 | O=C([O-])CCNC(=O)c1ccc(/N=N/c2ccc(O)c(C(=O)[O-])c2)cc1.[Na+].[Na+] [Sample 4] | 0% | 0.61% | 0.61% | 1.55% | 2.17% | 2.46% | 4.62% | 4.37% | 8.99% | 8.23% | 17.2% | 14.1% | 31.3% | 21.2% | 52.5% | 25.5% | 78.0% | 17.2% | 95.3% | 3.43% | Particle size, % < 10: 3.851 μm; Particle size, % < 25: 8.660 μm; Particle size, % < 50: 17.82 μm; Particle size, % < 75: 30.86 μm; Particle size, % < 100: 309.6 μm; Cum. < Volume % [11]: 98.7%; Diff. Volume % [11]: 1.08%; Cum. < Volume % [12]: 99.8%; Diff. Volume % [12]: 0.24%; Cum. < Volume % [13]: 100%; Diff. Volume % [13]: 0%; Cum. < Volume % [14]: 100%; Diff. Volume % [14]: 0%; Cum. < Volume % [15]: 100%; Diff. Volume % [15]: 0%; Cum. < Volume % [16]: 100%; Diff. Volume % [16]: 0%; Mean particle size (volume statistics, arithmetic): 22.93 μm; Median particle size (volume statistics, arithmetic): 17.82 μm; Specific Surf. Area: 7553 cm^2/mL
